In patent US20250177347A1, “SCLAREOL OR SCLAREOLIDE FOR USE IN THE TREATMENT OF INFLAMMATORY SKIN CONDITIONS” (ISP Investments LLC, priority 2022, published 2025):
In brackets after ≈: the same amount, converted by molar mass.

Columns and labels:
[1] = test system: C. parapsilosis KACC49573; conditions: cited from earlier work
C. glabrata KCTC7219 = conditions: cited from earlier work
C. albicans KCTC7965 = conditions: cited from earlier work
[2] = test system: C. tropicalis var. tropicalis KCTC17762; conditions: cited from earlier work
[3] = test system: C. parapsilosis var. parapsilosis KACC45480; conditions: cited from earlier work
C. auris KCTC17809 = conditions: cited from earlier work
Malassezia restricta = test: Broth microdilution MIC assay (EUCAST guidelines, slight modifications), resazurin fluorescence; type: cell-based; conditions: 48 h-60 h at 34° C.
Experimental: Objective: Sclareolide antifungal potential on Malassezia restricta was evaluated by the broth microdilution method.
Protocol: Malassezia restricta was routinely grown on modified Leeman-Notman (mLN) agar. The broth microdilution assay was performed following EUCAST guidelines (www.eucast.org) with slight modifications. Between five and ten colonies were suspended in a modified RPMI 1640 media supplemented with resazurin at a D.O (Density Optical) of 0.1. In a 96 well plate, serial dilutions of sclareolide (0.00023% to 0.12%) from a 24% stock solution in DMSO, and ketoconazole (0.001 to 0.25 μg/ml) solutions were prepared in modified RPMI 1640 culture medium. An equal volume of Malassezia restricta inoculum was added to the test samples at different concentrations. Following 48 h-60 h of incubation at 34° C., resazurin fluorescence was analyzed at 530 nm and 590 nm.
Results and conclusion: Results are presented as relative fluorescence intensity compared to DMSO control. MIC is defined as the lowest drug concentration that prevents growth of microorganisms.

keratin 10 = test: Keratin 10 immunohistochemistry in biopsies of healthy human abdominal skin in culture; type: cell-based
Experimental: Objective: The aim of this study is to show the effect of sclareolide on the synthesis of keratin 10 in biopsies of healthy abdominal skin.
Method: keratin 10 was assessed by immunohistochemistry with a specific antibody. […] Control biopsies received only 0.1% DMSO. The immunostaining was performed using paraffin sections incubated in the presence of anti-keratin 10 antibody (rabbit monoclonal, Abcam). After an hour and a half of incubation followed by rinses, the sections were incubated in the presence of the secondary anti-rabbit antibody coupled with a fluorophore (Alexa Fluor® 488, Invitrogen). The sections were then examined under a fluorescence microscope (Nikon Eclipse Ni-E microscope). […] fluorescence was then observed (using NiS-AR Nikon acquisition software) and quantified by image analysis (Volocity® image analysis software, Improvision).
(§1) This effect may be associated with a better quality of the skin barrier function.

[4] = test system: scalp reconstructed human epidermis; test: Malassezia restricta applied topically to scalp reconstructed human epidermis: histology and cytokine ELISA; type: cell-based; conditions: sclareolide 0.12% topical, two applications
Description: Objective: Sclareolide anti-inflammatory effect and barrier function prevention was quantified by cytokine quantification and histological observation respectively
Protocol: Malassezia restricta was applied topically to a scalp reconstructed human epidermis. This in vitro model is reconstructed from keratinocytes isolated from scalp skin. More precisely, the location of the epidermis used to isolate keratinocytes is interfollicular epidermis. These interfollicular keratinocytes was harvested and transferred into a cell culture insert and after several days of reconstruction, 100 μl of Malassezia restricta was applied on the top of the epidermis. Two days later, 100 μL sclareolide at a concentration of 0,12% was applied on the top of the epidermis, another application was performed after 24 hours. Ninety-six hours after the beginning of the Malassezia treatment, scalp reconstructed epidermis was stopped to performed histological analysis to observe modifications in the upper layers of the epidermis and the supernatant was harvested to measure inflammatory cytokine release by ELISA method.
In parallel, sclareolide decreased the inflammation induced by Malassezia restricta by the decrease of interleukin-8 release by 40,3% illustrated by FIG. 2.

epidermal lipids = test: Epidermal lipids, Nile Red staining, in biopsies of healthy human abdominal skin in culture; type: cell-based
Experimental: Objective: The aim of this study is to show the effect of sclareolide on the synthesis of epidermal lipids in biopsies of healthy abdominal skin.
Method: Epidermal lipids were assessed by fluorescent staining by using the fluorescent dye Nile Red.
[…] Control biopsies received only 0.1% DMSO. The epidermal lipids staining was performed using paraffin sections incubated with 100 nM of Nile Red solution (Sigma) for 10 minutes. The sections were then examined under a fluorescence microscope (Nikon Eclipse Ni-E microscope). Red fluorescence was then observed (using NiS-AR Nikon acquisition software) and quantified by image analysis (Volocity® image analysis software, Improvision).
as §1

[5] = sclareolide 0.0025% in 0.1% DMSO, twice a day for 48 hours topically, vs 0.1% DMSO control
[6] = skin biopsies cultures, composition comprising of sclareolide
[7] = modified RPMI 1640, relative fluorescence vs DMSO control

SMILES: C=C[C@](C)(O)CC[C@@H]1[C@@]2(C)CCCC(C)(C)[C@@H]2CC[C@@]1(C)O [Sclareol]
- Growth, biofilm formation, and yeast-hyphal transition [1]: inhibiting growth, biofilm formation, and yeast-hyphal transition
- Growth, biofilm formation, and yeast-hyphal transition (C. glabrata KCTC7219): inhibiting growth, biofilm formation, and yeast-hyphal transition
- Growth, biofilm formation, and yeast-hyphal transition (C. albicans KCTC7965): inhibiting growth, biofilm formation, and yeast-hyphal transition
- Growth, biofilm formation, and yeast-hyphal transition [2]: inhibiting growth, biofilm formation, and yeast-hyphal transition
- Growth, biofilm formation, and yeast-hyphal transition [3]: inhibiting growth, biofilm formation, and yeast-hyphal transition
- Growth, biofilm formation, and yeast-hyphal transition (C. auris KCTC17809): inhibiting growth, biofilm formation, and yeast-hyphal transition

SMILES: CC(=O)N1CCN(c2ccc(OCC3COC(Cn4ccnc4)(c4ccc(Cl)cc4Cl)O3)cc2)CC1 (stereo not drawn) [ketoconazole, reference compound]
- MIC (Malassezia restricta; Malassezia restricta, modified RPMI 1640): 0.0625 µg/mL (≈ 0.118 µM)

SMILES: CC1(C)CCC[C@]2(C)[C@H]3CC(=O)O[C@]3(C)CC[C@@H]12 [sclareolide, Sclareolide]
- Levels of keratin 10 (keratin 10; [5]): increase the levels of keratin 10
- Keratin 10 expression (keratin 10; [6]): increased
- Barrier function / penetration of Malassezia restricta in upper layers of the epidermis (histology) ([4]; 96 h): prevented the disruption of the barrier function and the penetration of Malassezia restricta in the upper layers of the epidermis
- Decrease of interleukin-8 release ([4]; inflammation induced by Malassezia restricta, ELISA of supernatant at 96 h): 40,3%
- Levels of epidermal lipids (epidermal lipids; [5]): increase the levels of epidermal lipids
- Total lipid content (epidermal lipids; [6]): increased
- Concentration at which growth of Malassezia restricta was completely inhibited (MIC) (Malassezia restricta; [7]): 0.12%
- Concentration from which growth of Malassezia restricta was significantly inhibited (Malassezia restricta; [7]): 0.015%
